PubChem BioAssay AID1963826 (Molecular Pharmacology Branch, DTP, NCI, 2024)
Where “and” joins values, the source holds several entries; their conditions need not be identical. Equal entries are not always repeated.

Test system: 926638-142-R-J1-PDC complex spheroid viability
Test: Anticancer human tumor 926638-142-R-J1-PDC patient-derived endometrial carcinoma cell line growth inhibition [POLQ]
Conditions: for viability, T/C: stronger effect = lower value
Protocol: Multicellular complex tumor spheroid response to Polymerase (POL) inhibitors (novobiocin, ART-558, RP6685) in combination with a variety of drugs and investigational agents in selected tumor cell lines
The POL inhibitors (novobiocin, ART-558, and RP6685) were evaluated both individually and in combination with standard of care and investigational anticancer small molecules within a complex spheroid model of solid tumors. . Complex spheroids include a stromal component modeled by human endothelial cells (HUVEC) and fibroblasts modeled by human mesenchymal stem cells (MSCs). The concentration ranges selected for each drug and investigational agent were based upon clinically achievable concentrations if the clinical Cmax of the agent was known.
Compounds. The drugs and investigational agents: novobiocin (NSC847541), ART-558 (NSC835418), RP-6685 (NSC848927), peposertib (NSC802822), ceralasertib (NSC780249), elimusertib (NSC800525), camonsertib (NSC841442), AZD-1390 (NSC803789), olaparib (NSC753686), talazoparib (NSC767125), rucaparib (NSC756644), sotorasib (NSC818433), MRTX-1133 (NSC836407), SN-38 (NSC673596), topotecan (NSC609699), epotoside (NSC141540), doxorubicin (NSC123127), gemcitabine (NSC613327), 5-fluorouracil (NSC19893), paclitaxel (NSC125973), vemurafenib (NSC761431), MSA-2 (NSC828583), SN-011 (NSC837082), adavosertib (NSC754352), prexasertib (NSC758257), carboplatin (NSC241240) and oxaliplatin (NSC266046), were obtained from the National Cancer Institute (NCI) Developmental Therapeutics Program Chemical Repository (21). The FDA-approved anticancer drug set is available from the Developmental Therapeutics Program at https://dtp.cancer.gov/organization/dscb/obtaining/. […] The stock solutions were prepared in dimethyl sulfoxide (DMSO, Sigma-Aldrich, St. Louis, MO, cat. D2650), except for the platinum compounds which were prepared in saline (Quality Biological, Gaithersburg, MD, cat. 114-055-101), at 800-fold the tested concentration and stored at -70 degrees C prior to their use. All drugs and investigational agents were tested over a range starting from a high concentration at or near the clinical Cmax and decreasing in half-log increments. If the clinical Cmax for an agent had not been determined, the highest concentration tested was 10 microM, except for SN-38, which was tested at a high concentration of 1 microM.
Cell Culture. All cells were maintained in an incubator at 37 degrees C and 5% CO2 with 95% humidity. The PDC lines were cultured according to standard operating procedures established by the NCI PDMR (https://pdmr.cancer.gov). Table 3 of the manuscript, lists the cell lines along with the number of the three cell types plated to form the mct-spheroids and media for tumor cell growth. After thawing, all PDC lines, except 997537-175-T-J1-PDC and 415267-285-R-J2-PDC, were cultured in Matrigel-coated flasks prepared with a working solution of 1X Ham's F-12 nutrient mix, without supplementation (Thermo Fisher Scientific, cat. 11765054), 100 U/mL penicillin-streptomycin (Thermo Fisher Scientific, cat. 15140122), and 2.5% Matrigel (Corning Inc., Corning, NY, cat. 354248) for the first three passages. The two PDC lines 997537-175-T-J1-PDC and 415267-285-R-J2-PDC were cultured on uncoated flasks. The 857933-349-R-J2-PDC line was cultured in 6C/Colon 1B media containing advanced DMEM/F-12 (Thermo Fisher Scientific, cat. 12634028), 10 mM HEPES (Thermo Fisher Scientific, cat. 15630080), 1X GlutaMAX supplement (Thermo Fisher Scientific, cat. 35050061), 0.1 mg/mL primocin (InvivoGen, San Diego, CA, cat. ant-pm-2), 10% defined fetal bovine serum, heat inactivated (HyClone Laboratories Inc., Logan, UT, cat. SH30070.03HI), 50% L-WRN conditioned media (ATCC, cat. CRL-3276), 1.25 mM N-Acetyl-L-cysteine (Sigma-Aldrich, cat. A9165), 10 mM nicotinamide (Sigma-Aldrich, cat. N0636), 1X B-27 supplement (Thermo Fisher Scientific, cat. 17504044), 1X N-2 supplement (Thermo Fisher Scientific, cat. […]
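Note: spheroids exposed to drugs for one week before readout.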
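Throughout, for viability, T/C: percent viability relative to DMSO vehicle control wells set as 100%.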

Structure (SMILES): CC1COCCN1c1cc(C2(O)CC3CCC(C2)O3)c2cnn(-c3ccn[nH]3)c2n1 (centres undefined) + Nc1ccc(C#CCN(C(=O)Cc2ncc(C(F)(F)F)cc2C(F)(F)F)c2ccc(F)cc2)nn1
- IC50 (curve of first compound, second compound 0.0316 µM): 0.197 µM
- IC50 (curve of first compound, second compound 0.1 µM): 0.2 µM
- IC50 (curve of first compound, second compound 0.316 µM): 0.191 µM
- IC50 (curve of first compound, second compound 1 µM): 0.199 µM
- IC50 (curve of first compound, second compound 3.16 µM): 0.198 µM
- IC50 (curve of first compound, second compound 10 µM): 0.186 µM
- viability, T/C (second compound 0.0316 µM, first compound 0.0316 µM): 96.6%
- viability, T/C (second compound 0.0316 µM, first compound 0.1 µM): 66.5%
- viability, T/C (second compound 0.0316 µM, first compound 0.316 µM): 40.1%
- viability, T/C (second compound 0.0316 µM, first compound 1 µM): 14.8%
- viability, T/C (second compound 0.0316 µM, first compound 3.16 µM): 8.94%
- viability, T/C (second compound 0.0316 µM, first compound 10 µM): 4.04%
- viability, T/C (second compound 0.1 µM, first compound 0.0316 µM): 105%
- viability, T/C (second compound 0.1 µM, first compound 0.1 µM): 69.9%
- viability, T/C (second compound 0.1 µM, first compound 0.316 µM): 36.8%
- viability, T/C (second compound 0.1 µM, first compound 1 µM): 16.9%
- viability, T/C (second compound 0.1 µM, first compound 3.16 µM): 10.6%
- viability, T/C (second compound 0.1 µM, first compound 10 µM): 4.15%
- viability, T/C (second compound 0.316 µM, first compound 0.0316 µM): 102%
- viability, T/C (second compound 0.316 µM, first compound 0.1 µM): 68.9%
- viability, T/C (second compound 0.316 µM, first compound 0.316 µM): 33.4%
- viability, T/C (second compound 0.316 µM, first compound 1 µM): 19.8%
- viability, T/C (second compound 0.316 µM, first compound 3.16 µM): 9.43%
- viability, T/C (second compound 0.316 µM, first compound 10 µM): 3.41%
- viability, T/C (second compound 1 µM, first compound 0.0316 µM): 88.3%
- viability, T/C (second compound 1 µM, first compound 0.1 µM): 71%
- viability, T/C (second compound 1 µM, first compound 0.316 µM): 35.8%
- viability, T/C (second compound 1 µM, first compound 1 µM): 14%
- viability, T/C (second compound 1 µM, first compound 3.16 µM): 9.22%
- viability, T/C (second compound 1 µM, first compound 10 µM): 3.83%
- viability, T/C (second compound 3.16 µM, first compound 0.0316 µM): 82.5%
- viability, T/C (second compound 3.16 µM, first compound 0.1 µM): 69%
- viability, T/C (second compound 3.16 µM, first compound 0.316 µM): 36.6%
- viability, T/C (second compound 3.16 µM, first compound 1 µM): 15.3%
- viability, T/C (second compound 3.16 µM, first compound 3.16 µM): 8.76%
- viability, T/C (second compound 3.16 µM, first compound 10 µM): 3.76%
- viability, T/C (second compound 10 µM, first compound 0.0316 µM): 73.6%
- viability, T/C (second compound 10 µM, first compound 0.1 µM): 75.1%
- viability, T/C (second compound 10 µM, first compound 0.316 µM): 29.3%
- viability, T/C (second compound 10 µM, first compound 1 µM): 15.8%
- viability, T/C (second compound 10 µM, first compound 3.16 µM): 10.8%
- viability, T/C (second compound 10 µM, first compound 10 µM): 3.69%

Structure (SMILES): CC(=O)O[C@H]1C(=O)[C@@]2(C)[C@H]([C@H](OC(=O)c3ccccc3)[C@]3(O)C[C@H](OC(=O)[C@H](O)[C@@H](NC(=O)c4ccccc4)c4ccccc4)C(C)=C1C3(C)C)[C@]1(OC(C)=O)CO[C@@H]1C[C@@H]2O
- viability, T/C (compound 0.00949 µM): 82.5% and 94% and 68.4%
- viability, T/C (compound 0.03 µM): 63.2% and 60.2% and 77.5%
- viability, T/C (compound 0.0949 µM): 57.1% and 53.2% and 62.2%
- viability, T/C (compound 0.3 µM): 55% and 53.9% and 68.9%
- viability, T/C (compound 0.949 µM): 61.5% and 52.6% and 56%
- viability, T/C (compound 3 µM): 44.7% and 45.7% and 57.5%
- IC50 (curve of compound): > 3 µM

Structure (SMILES): CC1COCCN1c1cc(C2(O)CC3CCC(C2)O3)c2cnn(-c3ccn[nH]3)c2n1 (centres undefined)
- viability, T/C (compound 0.0316 µM): 91.2% and 96.2% and 105%
- viability, T/C (compound 0.1 µM): 64.1% and 73.2% and 58.2%
- viability, T/C (compound 0.316 µM): 37% and 33.6% and 36.9%
- viability, T/C (compound 1 µM): 12.2% and 13.1% and 15.8%
- viability, T/C (compound 3.16 µM): 6.85% and 6.69% and 9.86%
- viability, T/C (compound 10 µM): 2.36% and 3.68% and 4.18%
- IC50 (curve of compound): 0.178 µM and 0.198 µM and 0.156 µM

Structure (SMILES): Cc1cccc(N(C)C(=O)C2C(O)CCN2c2nc(C)cc(C(F)(F)F)c2C#N)c1 (centres undefined)
- viability, T/C (compound 0.1 µM): 92.5% [middle of 13 runs]
- viability, T/C (compound 0.316 µM): 94.9% [middle of 13 runs]
- IC50 (compound alone, run of 01/08/2024): > 10 µM
- IC50 (compound alone, run of 01/19/2024): > 10 µM

Structure (SMILES): COc1ccc([C@@H](O)c2cc(-c3ncnc4cc(N5CCOCC5)ccc34)c(F)cc2Cl)nn1
- viability, T/C (compound 0.0316 µM): 89.7% and 92.5% and 103%
- viability, T/C (compound 0.1 µM): 89.2% and 79.2% and 80.3%
- viability, T/C (compound 0.316 µM): 58.8% and 72.4% and 64.8%
- viability, T/C (compound 1 µM): 29.3% and 35.7% and 36.9%
- viability, T/C (compound 3.16 µM): 13.2% and 18.7% and 16.1%
- viability, T/C (compound 10 µM): 8.76% and 11.7% and 5.8%
- IC50 (curve of compound): 0.466 µM and 0.635 µM and 0.606 µM

Structure (SMILES): Nc1ccn(C2OC(CO)C(O)C2(F)F)c(=O)n1 (centres undefined)
- viability, T/C (compound 0.0316 µM): 69.5% and 96.5% and 88.2%
- viability, T/C (compound 0.1 µM): 66% and 60.7% and 62%
- viability, T/C (compound 0.316 µM): 54.2% and 57.4% and 60.7%
- viability, T/C (compound 1 µM): 52.6% and 52.3% and 53.2%
- viability, T/C (compound 3.16 µM): 43.8% and 41.2% and 44%
- viability, T/C (compound 10 µM): 30.5% and 27.8% and 24.4%
- IC50 (curve of compound): 1.1 µM and 0.577 µM and 0.974 µM
